The text below walks through data of US20180371158A1, “PEPTIDOMIMETIC POLYMERS AS CONTROLLED RELEASE MATRICES FOR SMALL MOLECULES, BIOLOGICALS, SYNTHETIC OR SEMI-SYNTHETIC MACROMOLECULES” (priority 2015, published 2018).

The nature of the series: Release study of two dyes from electrospun fiber mat immersed in PBS at 37° C., UV absorbance. The format is physicochemical. The procedure: 6.36 mg rhodamine B was dissolved in 20 mL PBS. 200 μL solution of this solution was taken and 1.8 mL PBS was added to achieve a 10× dilution. The solution was serially diluted from 100× to 1000×, and the corresponding absorbance of each was measured. Rhodamine B concentration vs absorbance was plotted.
The above solution was diluted to 30, 40, 50, 60, 70, 80, 90, 100, 150, 200× concentrations. UV absorbance was measured for each solution.
In a 20 mL scintillation vial, 2 cm×2 cm fiber mat of the polyester was immersed in 20 ml PBS. The vial was stored in 37° C. incubator. 2 mL PBS was removed at each time point and replaced with 2 mL fresh PBS, and UV absorbance was measured. These measurements were performed in triplicates. Dye release was calculated according to the UV absorbance standard curve.

Molecules are shown by their SMILES.

Regarding `CCN(CC)c1ccc2c(-c3ccccc3C(=O)O)c3ccc(=[N+](CC)CC)cc-3oc2c1.[Cl-]` [rhodamine B, Rhodamine B], the “cumulative release of dye from fiber mat” value is recorded as 17.0±3.2% (after day 55, fiber mat of p(mPhe-Keto-BocGlu) mixed with rhodamine B and coumarin dye); 30.4±6.5% (after day 90, fiber mat of p(mPhe-Keto-BocGlu) mixed with rhodamine B and coumarin dye); 7.4±1.6% (days 0-7, fiber mat of p(mPhe-Keto-BocGlu) mixed with rhodamine B and coumarin dye).
